# Data taken from PMC10254923 (2023).
# Experiments:
# [1] = tested on: poly dAdT—poly dAdT; p(dAdT)2 (DNA, polymer) AT; experiment: fluorimetric titration, Scatchard (McGhee-von Hippel) fit; conditions: Na+ (sodium cacodylate, I = 0.05 M); pH 7.0, 25 °C; n fixed 0.2; polynucleotide concentration as phosphates; per base
# [2] = tested on: poly rA—poly rU; prAprU (RNA, polymer) A/U; experiment: as above; conditions: Na+ (sodium cacodylate, I = 0.05 M); pH 7.0, 25 °C; n fixed 0.2; polynucleotide concentration as phosphates; per base
# [3] = tested on: poly dGdC—poly dGdC; p(dGdC)2 (DNA, polymer) GC; experiment: as above; conditions: Na+ (sodium cacodylate, I = 0.05 M); pH 7.0, 25 °C; n fixed 0.2; polynucleotide concentration as phosphates; per base
# [4] = tested on: poly dAdT—poly dAdT; p(dAdT)2 (DNA, polymer) AT; experiment: UV thermal denaturation at 260 nm; conditions: Na+ (sodium cacodylate, I = 0.05 M); pH 7.0; r = [compound]/[polynucleotide] = 0.1; error ±0.5 °C; per base
# [5] = tested on: poly rA—poly rU; prAprU (RNA, polymer) A/U; experiment: UV thermal denaturation at 260 nm; conditions: Na+ (sodium cacodylate, I = 0.05 M); pH 7.0; r = [compound]/[polynucleotide] = 0.1; error ±0.5 °C; per base
# [6] = tested on: poly dAdT—poly dAdT; p(dAdT)2 (DNA, polymer) AT; experiment: UV/vis titration, Scatchard (McGhee-von Hippel) fit; conditions: Na+ (sodium cacodylate, I = 0.05 M); pH 7.0, 25 °C; n fixed 0.2; polynucleotide concentration as phosphates; per base
# [7] = tested on: poly dGdC—poly dGdC; p(dGdC)2 (DNA, polymer) GC; experiment: as above; conditions: Na+ (sodium cacodylate, I = 0.05 M); pH 7.0, 25 °C; n fixed 0.2; polynucleotide concentration as phosphates; per base
# [8] = tested on: poly rA—poly rU; prAprU (RNA, polymer) A/U; experiment: as above; conditions: Na+ (sodium cacodylate, I = 0.05 M); pH 7.0, 25 °C; n fixed 0.2; polynucleotide concentration as phosphates; per base
compound,measurement,setting,value
Cc1cc(-c2ccc3c(c2)Cc2cc(-c4cc(C)c(B(c5c(C)cc([N+](C)(C)C)cc5C)c5c(C)cc([N+](C)(C)C)cc5C)c(C)c4)ccc2-3)cc(C)c1B(c1c(C)cc([N+](C)(C)C)cc1C)c1c(C)cc([N+](C)(C)C)cc1C,logKs,[1],6.9
same,logKs,[2],7.9
same,logKs,[3],7.4
same,ΔTm,[4],8.2 °C
same,ΔTm,[5],9.3 °C
Cc1cc(-c2ccc(-c3ccc(-c4cc(C)c(B(c5c(C)cc([N+](C)(C)C)cc5C)c5c(C)cc([N+](C)(C)C)cc5C)c(C)c4)cc3)cc2)cc(C)c1B(c1c(C)cc([N+](C)(C)C)cc1C)c1c(C)cc([N+](C)(C)C)cc1C,logKs,[6],6.1
same,logKs,[7],6.0
same,logKs,[8],7.5
same,ΔTm,[4],6.7 °C
same,ΔTm,[5],12.1 °C
Cc1cc(-c2cc3ccc4cc(-c5cc(C)c(B(c6c(C)cc([N+](C)(C)C)cc6C)c6c(C)cc([N+](C)(C)C)cc6C)c(C)c5)cc5ccc(c2)c3c45)cc(C)c1B(c1c(C)cc([N+](C)(C)C)cc1C)c1c(C)cc([N+](C)(C)C)cc1C,logKs,[1],8.7
same,logKs,[2],7.4
same,logKs,[3],8.0
same,ΔTm,[4],9.6 °C
same,ΔTm,[5],7.4 °C
